How the values were obtained:
[1] = system: spontaneous motor activity; assay: Spontaneous motor activity on day ten of chronic dosing; details: day ten of b.i.d. oral dosing, 1 hour
Procedure: (§1) The effects of chronic dosing of nepicastat were examined. Between three and thirteen days prior to the first dosing day the rats were placed inside the startle apparatus and after a five minute acclimation period they were presented with a 118 dB noise burst on average once a minute (a variable inter-trial interval ranging between 30 and 90 seconds will be used) for 20 minutes. The startle responses were measured and a mean for the last twenty startle response was calculated for each rat.
The animals were tested in an enclosed room with a white noise generator running. Motor activity tests were conducted immediately after the body core temperature reading taken on dosing day ten (about 3 hours and 35 minutes after the morning daily dose of nepicastat, and SKF-102698, and 20 minutes prior to the daily administration of clonidine and d-amphetamine on dosing day ten). Motor activity tests were run for one hour. A diagnostic program was run on each of the motor activity chambers prior to each test session to assure that the photo beams and light sensors were operating properly. […] D-amphetamine was used as the positive control for this assay.
Each rats spontaneous locomotion was obtained by calculating the total number of photobeams that the subject broke during the testing session.
Spontaneous motor activity was measured for each animal every 15 min for 1 hour. Each time block (every 15 min) was analyzed separately. Kruskal-Wallis test (nonparametric technique) was performed to test for the difference between treatment groups. If the overall significant difference […], Bonferroni's adjustment for multiple comparisons is then made.

[2] = system: pre-pulse inhibition; assay: Pre-pulse inhibition of acoustic startle on day ten of chronic dosing
Procedure: as §1
(§2) Acoustic startle reactivity (a series of muscle contractions elicited by an intense burst of noise with a rapid onset), and pre-pulse inhibition (sensorimotor gating measured by analyzing any decrease in startle reactivity which occurs when a startling stimulus is immediately preceded by a non startling stimulus) were both measured in eight SR-Lab (San Diego Instruments, San Diego, Calif.) test stations. The rats were placed individually in a Plexiglas cylinder (10 cm diameter) which was housed in a ventilated sound-attenuating enclosure. Acoustic noise bursts (a broad band noise with a rise time and fall time of 1 msec) were presented via a speaker mounted 30 cm above the animal. Also, these speakers produced a 68 dB level of background noise throughout all test sessions. […] A decibel meter was used to calibrate the speakers in each of the eight test station to ±1% of the mean. Additionally, a SR-Lab calibrating instrument was used to calibrate each of the eight startle detection apparatuses to ±2% of the mean. Startle reactivity and pre-pulse inhibition tests were run concurrently immediately alter the motor activity test (about 4 hours and 40 minutes after the morning daily injection of nepicastat, and SKF-102698, and 10 minutes after a supplemental administration of clonidine and d-amphetamine on dosing day ten).

[3] = system: body core temperature; assay: Body core temperature during 10 day chronic dosing; details: b.i.d. oral: nepicastat 5, 15, 50 mg/kg; SKF-102698 50 mg/kg; clonidine 20 ug/kg; d-amphetamine 2 mg/kg; days 1, 5, 10
Procedure: as §1
Rat body core temperatures were obtained by inserting the rectal probe 2 cm into the colon of each rat. Each rat's body core temperature was measured three times and the average of the three reading was calculated. Body core temperature readings were obtained immediately prior to the ten day chronic dosing schedule (to obtain a baseline), and three and half hour after the morning daily dose of nepicastat, and SKF-102698, and 15 minutes prior to the daily administration of clonidine and d-amphetamine, on dosing days one, five and ten. […] Both clonidine (an alpha2 agonist), and d-amphetamine (a dopamine releaser) were used as the positive controls for this assay.
An overall one-way ANOVA with a main effect for treatment was performed at each time on the change from baseline for each animal. Subsequent t-tests were performed for each comparison of interest.

[4] = Change of body weight during 10 day chronic dosing; details: 10 days b.i.d. oral dosing
Procedure: as §1
The change from pre-dose in body weights was calculated for each animal for the analysis. A repeated measures two-way ANOVA was used to test for the overall effects of treatment, time and treatment by time interaction. One-way ANOVAS were then performed to test the treatment effect at each day.

[5] = system: acoustic startle reactivity; assay: Acoustic startle reactivity on day ten of chronic dosing; details: rat, in vivo, po
Procedure: as §1, §2

[6] = system: acoustic startle reactivity; assay: Acoustic startle reactivity after acute dosing; assay type: in vivo, Sprague Dawley rats; details: nepicastat 3-100 mg/kg, SKF-102698 100 mg/kg, clonidine 40 μg/kg
Procedure: A piezoelectric accelerometer transforms the subject's movement into an arbitrary voltage on a scale of 0 to 4095. Prior to drug administration, each of seventy-two rats was placed in the startle apparatus, and after a 5 minute adaption period they were presented with an acoustic noise burst every 20 seconds for 15 minutes (45 startles total). The average startle was calculated for each rat by taking the mean of startle number 11 through 45 (the first ten startles will be disregarded). Sixty-four of these rats were then placed in one of eight treatment groups such that each group had similar mean startle values. The eight treatment groups were as follows: […] Each day after this testing procedure, eight rats (one rat from each of the eight treatment groups) was injected with their assigned drug treatment and immediately placed individually in a motor activity box. The rats motor activity was monitored for four hours. Next, the rats were placed in a transfer cage for fifteen minutes. […] To evaluate startle reactivity, for the 200 milliseconds immediately succeeding each startle the average force exerted by each startled rat over the entire 200 milliseconds, and the maximum force, were measured. […] The startle responses were analyzed using analysis of covariance. […] Therefore, the startle responses were analyzed by time. […]

[7] = system: locomotor activity; assay: Locomotor activity after acute dosing; assay type: in vivo, Sprague Dawley rats; details: 4 h; nepicastat 3-100 mg/kg, SKF-102698 100 mg/kg, clonidine 40 μg/kg
Description: Changes in these behaviors may therefore reflect activity of these compounds in the central nervous system. […] Rats were housed under a normal light/dark cycle with lights on between 0900 Hrs. and 2100 Hrs. Animals were housed in pairs in standard metal wire cages, and food and water were allowed ad libitum. The locomotor activity boxes consisted of a Plexiglas® box measuring 18″×18″ by 12″ high. Surrounding the Plexiglas® boxes were Omnitech Digiscan Monitors (model # RXXCM 16) which consisted of a one inch ban of photobeams and photosensors numbering 32 per box. The number of photobeam breaks were analyzed by an Omnitech Digiscan Analyzer (model # DCM-8). […] Prior to drug administration, each of seventy-two rats was placed in the startle apparatus, and after a 5 minute adaption period they were presented with an acoustic noise burst every 20 seconds for 15 minutes (45 startles total). The average startle was calculated for each rat by taking the mean of startle number 11 through 45 (the first ten startles will be disregarded). Sixty-four of these rats were then placed in one of eight treatment groups such that each group had similar mean startle values. The eight treatment groups were as follows: […] Each day after this testing procedure, eight rats (one rat from each of the eight treatment groups) was injected with their assigned drug treatment and immediately placed individually in a motor activity box. The rats motor activity was monitored for four hours. Next, the rats were placed in a transfer cage for fifteen minutes. At the beginning of this fifteen minutes the rat that has been assigned the clonidine treatment will receive another injection of 40 μg/kg. […] To evaluate motor activity, horizontal activity (number of photobeams broken), number of movements, and rest time were measured. Each parameter was analyzed separately. At each time interval (or called sample), a two-way analysis of variance (ANOVA) was performed using the ranked data (nonparametric technique) to test for the treatment effect blocked by day.

| Structure (SMILES) | spontaneous motor (locomotor) activity vs vehicle [1] | percent prepulse inhibition vs vehicle ([2]; day ten of b.i.d. oral dosing) | body core temperature [3] | change in body weight from pre-dose vs vehicle [4] | acoustic startle reactivity vs vehicle [5] | percent prepulse inhibition vs vehicle ([2]; rat, in vivo, po) | maximum and average startle response vs vehicle [6] | horizontal activity vs vehicle [7] | number of movements vs vehicle [7] | rest time vs vehicle [7] |
| --- | --- | --- | --- | --- | --- | --- | --- | --- | --- | --- |
| C[C@H](N)Cc1ccccc1 [d-amphetamine] | significantly higher locomotor activity | Neither d-amphetamine nor SKF 102698 was significantly different | significantly increasing body core temperature on day one | significantly smaller change in body weight |  |  |  |  |  |  |
| Clc1cccc(Cl)c1N=C1NCCN1 [clonidine] |  |  |  |  | significantly reduced | just significantly higher percent prepulse inhibition | statistically significantly lower | significantly more horizontal activities at 2 and 2.5 hours | significantly more movements at 2 hours | significantly less rest time at 2 hours |

Reference: patent US20090054403A1, “Treatment of Post-Traumatic Stress Disorder” (priority 2007, published 2009)
